Molecules are shown by their SMILES. Positions count from the first letter of the chain named.

Assay [1] addresses T1, M342A mutant AhR (Mus musculus, UniProt P30561, M342A).
T1 construct: made in house; host or cells: in vitro, Promega TNT Quick rabbit reticulocyte lysate
T1 sequence (P30561 10-848 M342A): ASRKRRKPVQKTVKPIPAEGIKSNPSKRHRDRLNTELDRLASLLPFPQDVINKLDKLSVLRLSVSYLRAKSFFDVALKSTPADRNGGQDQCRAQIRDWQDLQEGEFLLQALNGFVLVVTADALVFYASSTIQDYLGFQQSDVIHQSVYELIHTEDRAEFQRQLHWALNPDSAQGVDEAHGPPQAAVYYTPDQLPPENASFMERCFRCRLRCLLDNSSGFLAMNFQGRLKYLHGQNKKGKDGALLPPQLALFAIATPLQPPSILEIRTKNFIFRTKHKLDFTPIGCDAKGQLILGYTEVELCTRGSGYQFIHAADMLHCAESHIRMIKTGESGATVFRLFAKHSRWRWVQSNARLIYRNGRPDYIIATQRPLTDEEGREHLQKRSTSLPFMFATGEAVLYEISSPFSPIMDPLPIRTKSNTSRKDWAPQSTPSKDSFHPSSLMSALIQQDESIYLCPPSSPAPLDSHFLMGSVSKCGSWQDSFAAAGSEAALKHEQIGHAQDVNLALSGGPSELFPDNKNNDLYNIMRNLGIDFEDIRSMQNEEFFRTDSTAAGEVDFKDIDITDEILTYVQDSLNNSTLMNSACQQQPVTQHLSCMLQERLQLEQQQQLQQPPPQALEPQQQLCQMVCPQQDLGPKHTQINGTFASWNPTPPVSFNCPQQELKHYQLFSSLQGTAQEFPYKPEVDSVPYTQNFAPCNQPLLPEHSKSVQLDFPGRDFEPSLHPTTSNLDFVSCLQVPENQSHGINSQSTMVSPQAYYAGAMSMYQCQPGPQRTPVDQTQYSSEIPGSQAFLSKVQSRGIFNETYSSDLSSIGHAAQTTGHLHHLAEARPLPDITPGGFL
Kind of assay: [3H]TCDD competitive ligand binding, M342A mutant AhR. Particulars: for change of relative binding affinity versus wild-type AhR: M342A substitution, in words; for IC50: Table S6, AhR mutant M342A. As to the method:
(§1) The mouse AhR (mAhR) and ARNT (mARNT) expression plasmids, mβAhR/pcDNA3 and mβArnt/pcDNA3, have been previously described. Point mutations of mβAhR/pcDNA3 were carried out using the QuikChange Lightning Mutagenesis Kit (Agilent Technologies) and all constructs were verified by sequencing.
(§2) [^3H]TCDD specific binding to wild-type or mutant mAhRs synthesized in vitro using the Promega TNT Quick coupled transcription/translation rabbit reticulocyte lysate kit (Madison, WI) was carried out as previously described. [^3H]TCDD specific binding was determined by subtracting the amount of [^3H]TCDD bound to unprogrammed lysate (nonspecific binding) from the total amount of [^3H]TCDD binding to lysate containing in vitro expressed AhR. The amount of [^3H]TCDD specific binding remaining in the presence of the indicated competitor chemical was expressed as a percent of the total [^3H]TCDD specific binding. The relative binding affinity (IC50) of each chemical was determined from concentration-dependent competitive inhibition curves obtained using [^3H]TCDD and increasing concentrations of each test chemical and the mean IC50 value was determined using three-parameter non-linear regression.

Assay [2] deals with T2, M334A mutant AhR (Mus musculus, UniProt P30561, M334A).
T2 construct: made in house; host or cells: in vitro, Promega TNT Quick rabbit reticulocyte lysate
T2 sequence (P30561 10-848 M334A): T1 sequence (P30561 10-848 M342A) with M325A, A333M
As to the kind of experiment: [3H]TCDD competitive ligand binding, M334A mutant AhR. Particulars: for change of relative binding affinity versus wild-type AhR: M334A substitution, in words; for IC50: Table S6, AhR mutant M334A. As to the method:
as §1, §2

With `Clc1ccc(-c2cc(Cl)c(Cl)c(Cl)c2)cc1Cl` [PCB126, 3,3′4,4′5-pentachlorobiphenyl], in assay [1], the “change of relative binding affinity versus wild-type AhR” value is “reduced” and the 50% inhibitory concentration (IC50) (usually the point on the concentration scale where inhibition reaches its midpoint) is 9.33 nM. In addition, in assay [2], the “change of relative binding affinity versus wild-type AhR” value is given as “significantly reduced” and the half-inhibitory concentration (IC50) is 74.1 nM.
On to `O=c1cc(-c2ccccc2)oc2ccc3ccccc3c12` [BNF], for which, in assay [1], the “change of relative binding affinity versus wild-type AhR” value was “not affected” and the half-maximal inhibitory concentration (IC50) amounted to 9.6 nM.
Consider `Cc1ccc2cc3c(ccc4ccccc43)c3c2c1CC3` [3MC, 3-methylcholanthrene], for which, in assay [1], the “change of relative binding affinity versus wild-type AhR” value is given as “reduced” and the half-maximal inhibitory concentration (IC50) was 248 nM. Besides, in assay [2], the “change of relative binding affinity versus wild-type AhR” value is given as “decreased” and the half-maximal inhibitory concentration (IC50) was determined as 34.7 nM.
As for `O=Cc1c2[nH]c3ccccc3c2cc2[nH]c3ccccc3c12` [FICZ, 6-formylindolo[3,2-b]carbazole], the IC50 in assay [1] was found to be 0.0207 nM.
For `c1ccc2c(c1)ccc1cc3c(ccc4ccccc43)cc12` [DBA, dibenz(a,h)anthracene], in assay [1], the “change of relative binding affinity versus wild-type AhR” value is given as “not affected” and the half-inhibitory concentration (IC50) came to 6.72 nM. In addition, in assay [2], the “change of relative binding affinity versus wild-type AhR” value is “no significant effect” and the 50% inhibitory concentration (IC50) was found to be 7.33 nM.

The record behind these values is publication PMC6650409, “Modeling the binding of diverse ligands within the Ah receptor ligand binding domain” (Scientific Reports, 2019).
